Read-outs that look alike come from different tables or passages of the source.
Columns and labels:
GSK3β = GSK3β (Homo sapiens, UniProt P49841); experiment: GSK3β kinase assay (Caliper LabChip3000 mobility shift, fluoresceinated peptide substrate); assay type: biochemical
pTau = pTau assay (no method described); assay type: cell-based
GSK3α = GSK3α (Homo sapiens, UniProt P49840); experiment: GSK3α kinase assay (Caliper LabChip3000 mobility shift, fluoresceinated peptide substrate)
Description: The kinase assay was performed in V-bottom 384-well plates. […] The reaction was incubated at room temperature for 20 hours and terminated by adding 45 μl of 35 mM EDTA to each sample. The reaction mixture was analyzed on the Caliper LabChip3000 (Caliper, Hopkinton, Mass.) by electrophoretic separation of the unphosphorylated substrate and phosphorylated product. […] Compounds were dissolved at 10 mM in dimethylsulfoxide (DMSO) and evaluated at eleven concentrations. IC50 values were derived by non-linear regression analysis.

[1] = 250 pM enzyme, 20 uM ATP, 1.5 uM peptide, 20 hours room temperature, first value of cell GSK3β/GSK3α, read-out: GSK3β (nM), IC50

Sequence of GSK3β (P49841 whole entry, species assumed): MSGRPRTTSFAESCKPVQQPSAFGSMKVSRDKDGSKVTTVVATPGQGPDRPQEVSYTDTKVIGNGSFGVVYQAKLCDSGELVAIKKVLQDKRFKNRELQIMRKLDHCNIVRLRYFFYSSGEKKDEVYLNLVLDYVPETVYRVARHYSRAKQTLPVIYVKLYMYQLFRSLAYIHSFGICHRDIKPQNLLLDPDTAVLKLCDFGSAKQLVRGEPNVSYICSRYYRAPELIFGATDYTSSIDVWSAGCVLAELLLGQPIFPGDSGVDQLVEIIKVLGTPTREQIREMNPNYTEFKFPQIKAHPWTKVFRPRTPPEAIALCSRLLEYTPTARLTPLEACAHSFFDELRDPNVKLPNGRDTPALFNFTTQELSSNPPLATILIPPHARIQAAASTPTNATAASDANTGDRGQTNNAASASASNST
Sequence of GSK3α (P49840 whole entry, species assumed): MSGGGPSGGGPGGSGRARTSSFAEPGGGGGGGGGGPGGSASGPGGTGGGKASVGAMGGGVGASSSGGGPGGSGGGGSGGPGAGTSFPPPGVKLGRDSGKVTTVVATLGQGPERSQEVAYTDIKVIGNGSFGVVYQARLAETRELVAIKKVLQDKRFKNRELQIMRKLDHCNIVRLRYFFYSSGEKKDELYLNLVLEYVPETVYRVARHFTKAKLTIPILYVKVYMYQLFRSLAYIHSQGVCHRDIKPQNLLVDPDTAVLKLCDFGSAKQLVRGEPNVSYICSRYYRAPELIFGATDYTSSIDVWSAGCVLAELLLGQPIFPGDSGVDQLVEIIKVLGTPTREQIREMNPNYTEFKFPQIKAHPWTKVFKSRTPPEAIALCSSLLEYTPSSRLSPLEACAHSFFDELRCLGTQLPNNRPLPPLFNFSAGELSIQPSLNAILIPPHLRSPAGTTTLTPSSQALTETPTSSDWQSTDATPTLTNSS

| SMILES | IC50 (GSK3β; [1]) | IC50 (pTau) | IC50 (GSK3α) | IC50 (GSK3β) |
| --- | --- | --- | --- | --- |
| COc1cccc(C2CC2CNc2nccc(C(=O)Nc3cncnc3)n2)c1 (stereo not drawn) [Example 199, 2-(((2-(3-Methoxyphenyl)cyclopropyl)methyl)amino)-N-(pyrimidin-5-yl)pyrimidine-4-carboxamide] | 40 nM | 6100 nM | 33 nM | – |
| O=C(Nc1cncnc1)c1ccnc(NCC2CC2c2cccc(F)c2)n1 (stereo not drawn) [Example 200, 2-(((2-(3-Fluorophenyl)cyclopropyl)methyl)amino)-N-(pyrimidin-5-yl)pyrimidine-4-carboxamide] | 53 nM | 6400 nM | 59 nM | – |
| O=C(Nc1cncnc1)c1ccnc(Nc2ccccc2)n1 [Example 201, 2-(Phenylamino)-N-(pyrimidin-5-yl)pyrimidine-4-carboxamide] | 71 nM | 4200 nM | 45 nM | – |
| O=C(Nc1cncnc1)c1ccnc(N[C@H]2C[C@@H]2c2ccccc2)n1 [Example 202, 2-(((1S,2R)-2-Phenylcyclopropyl)amino)-N-(pyrimidin-5-yl)pyrimidine-4-carboxamide] | 120 nM | 2300 nM | 57 nM | – |
| O=C(Nc1cncnc1N1CCOCC1)c1ccnc(NCC2CCC2)n1 [Example 203, 2-((Cyclobutylmethyl)amino)-N-(4-morpholinopyrimidin-5-yl)pyrimidine-4-carboxamide] | – | 600 nM | 6.1 nM | 8.7 nM |
| CC(C)(C)CNc1nccc(C(=O)Nc2cncnc2N2CCOCC2)n1 [Example 204] | 13 nM | 1100 nM | 11 nM | – |
| O=C(Nc1cncnc1N1CCOCC1)c1ccnc(NCC2CC2)n1 [Example 205, 2-((Cyclopropylmethyl)amino)-N-(4-morpholinopyrimidin-5-yl)pyrimidine-4-carboxamide] | – | 1800 nM | 22 nM | 19 nM |
| O=C(Nc1cncnc1N1CCOCC1)c1ccnc(NCC2CCOCC2)n1 [Example 206, N-(4-Morpholinopyrimidin-5-yl)-2-(((tetrahydro-2H-pyran-4-yl)methyl)amino)pyrimidine-4-carboxamide] | 74 nM | 4700 nM | 99 nM | – |

— patent US10752609B2, “GSK-3 inhibitors” (priority 2016, dated 2020)
